ChEMBL document CHEMBL3885881, “DrugMatrix”

Species on record: Rattus norvegicus
Assay: DrugMatrix - Regimen: Daily Repeat
Assay type: toxicity, organism-based, Sprague-Dawley
Set-up: regimen Daily Repeat, gender Male, age 6-8 weeks
Conditions: in vivo, po, route oral GAVAGE, vehicle 100 % SALINE; for ABSOLUTE BASOPHIL / ABSOLUTE EOSINOPHIL / ABSOLUTE LYMPHOCYTE / ABSOLUTE MONOCYTE / ABSOLUTE SEGMENTED NEUTROPHIL / BASOPHIL / EOSINOPHIL / ERYTHROCYTE COUNT / HEMATOCRIT / HEMOGLOBIN / LEUKOCYTE COUNT / LYMPHOCYTE / MEAN CORPUSCULAR HEMOGLOBIN / MEAN CORPUSCULAR HEMOGLOBIN CONCENTRATION / MEAN CORPUSCULAR VOLUME / MONOCYTE / NEUTROPHIL / NUCLEATED RED BLOOD CELLS / PLATELET COUNT: tissue Blood; for ALANINE AMINOTRANSFERASE / ALBUMIN / ALKALINE PHOSPHATASE / ASPARTATE AMINOTRANSFERASE / BLOOD UREA NITROGEN / CARBON DIOXIDE / CHLORIDE / CHOLESTEROL / CREATINE PHOSPHOKINASE / CREATININE / GLUCOSE / LACTATE DEHYDROGENASE / LIPASE / PHOSPHORUS / POTASSIUM / SODIUM / TOTAL BILIRUBIN / TOTAL PROTEIN / URIC ACID: tissue Plasma
[1] = 0 mg/kg, 72 h, dose level Control, time 3 day
[2] = 0 mg/kg, 120 h, dose level Control, time 5 day
[3] = 46 mg/kg, 72 h, dose level Low, time 3 day

COc1ccc2cc(CC(=O)O)ccc2c1
ABSOLUTE BASOPHIL [1]: 0 CELLS/uL | ABSOLUTE EOSINOPHIL [1]: 26.83 CELLS/uL | ABSOLUTE LYMPHOCYTE [1]: 12748.5 CELLS/uL | ABSOLUTE MONOCYTE [1]: 140.5 CELLS/uL | ABSOLUTE SEGMENTED NEUTROPHIL [1]: 1067.5 CELLS/uL | BASOPHIL [1]: 0% | EOSINOPHIL [1]: 0.17% | ERYTHROCYTE COUNT [1]: 5.51 x10E6/uL | HEMATOCRIT [1]: 34.75% | HEMOGLOBIN [1]: 13.65 G/DL | LEUKOCYTE COUNT [1]: 13.98 x10E3/uL | LYMPHOCYTE [1]: 91.17% | MEAN CORPUSCULAR HEMOGLOBIN [1]: 24.8 pg | MEAN CORPUSCULAR HEMOGLOBIN CONCENTRATION [1]: 39.33 G/DL | MEAN CORPUSCULAR VOLUME [1]: 63.03 fL | MONOCYTE [1]: 1% | NEUTROPHIL [1]: 7.67% | NUCLEATED RED BLOOD CELLS [1]: 0 /100WBC | PLATELET COUNT [1]: 1278.17 x10E3/uL | ALANINE AMINOTRANSFERASE [1]: 52.17 u/L | ALBUMIN [1]: 4.07 G/DL | ALKALINE PHOSPHATASE [1]: 416.83 u/L | ASPARTATE AMINOTRANSFERASE [1]: 109.67 u/L | BLOOD UREA NITROGEN [1]: 16.83 mg/dL | CARBON DIOXIDE [1]: 28 mmol/L | CHLORIDE [1]: 100.83 MEQ/L | CHOLESTEROL [1]: 69 mg/dL | CREATINE PHOSPHOKINASE [1]: 1155.67 u/L | CREATININE [1]: 0.32 mg/dL | GLUCOSE [1]: 186.5 mg/dL | LACTATE DEHYDROGENASE [1]: 345.67 u/L | LIPASE [1]: 12.17 u/L | PHOSPHORUS [1]: 12.45 mg/dL | POTASSIUM [1]: 6.85 MEQ/L | SODIUM [1]: 141.4 MEQ/L | TOTAL BILIRUBIN [1]: 0.23 mg/dL | TOTAL PROTEIN [1]: 5.63 G/DL | URIC ACID [1]: 2.22 mg/dL | ABSOLUTE BASOPHIL [2]: 0 CELLS/uL | ABSOLUTE EOSINOPHIL [2]: 114.33 CELLS/uL | ABSOLUTE LYMPHOCYTE [2]: 11655.33 CELLS/uL | ABSOLUTE MONOCYTE [2]: 142 CELLS/uL | ABSOLUTE SEGMENTED NEUTROPHIL [2]: 1055 CELLS/uL | BASOPHIL [2]: 0% | EOSINOPHIL [2]: 0.83% | ERYTHROCYTE COUNT [2]: 5.68 x10E6/uL | HEMATOCRIT [2]: 35.92% | HEMOGLOBIN [2]: 14.13 G/DL | LEUKOCYTE COUNT [2]: 12.97 x10E3/uL | LYMPHOCYTE [2]: 90% | MEAN CORPUSCULAR HEMOGLOBIN [2]: 24.93 pg | MEAN CORPUSCULAR HEMOGLOBIN CONCENTRATION [2]: 39.37 G/DL | MEAN CORPUSCULAR VOLUME [2]: 63.33 fL | MONOCYTE [2]: 1.17% | NEUTROPHIL [2]: 8% | NUCLEATED RED BLOOD CELLS [2]: 0 /100WBC | PLATELET COUNT [2]: 1234 x10E3/uL | ALANINE AMINOTRANSFERASE [2]: 43.5 u/L | ALBUMIN [2]: 4.23 G/DL | ALKALINE PHOSPHATASE [2]: 331.5 u/L | ASPARTATE AMINOTRANSFERASE [2]: 80.83 u/L | BLOOD UREA NITROGEN [2]: 17.67 mg/dL | CARBON DIOXIDE [2]: 31.83 mmol/L | CHLORIDE [2]: 100.83 MEQ/L | CHOLESTEROL [2]: 69.5 mg/dL | CREATINE PHOSPHOKINASE [2]: 320 u/L | CREATININE [2]: 0.26 mg/dL | GLUCOSE [2]: 157.33 mg/dL | LACTATE DEHYDROGENASE [2]: 364.67 u/L | LIPASE [2]: 9.83 u/L | PHOSPHORUS [2]: 11.05 mg/dL | POTASSIUM [2]: 5.83 MEQ/L | SODIUM [2]: 141.07 MEQ/L | TOTAL BILIRUBIN [2]: 0.22 mg/dL | TOTAL PROTEIN [2]: 5.92 G/DL | URIC ACID [2]: 1.23 mg/dL | ABSOLUTE BASOPHIL [3]: 0 CELLS/uL | ABSOLUTE EOSINOPHIL [3]: 49.33 CELLS/uL | ABSOLUTE LYMPHOCYTE [3]: 12249.33 CELLS/uL | ABSOLUTE MONOCYTE [3]: 224.67 CELLS/uL | ABSOLUTE SEGMENTED NEUTROPHIL [3]: 1176.67 CELLS/uL | BASOPHIL [3]: 0% | EOSINOPHIL [3]: 0.33% | ERYTHROCYTE COUNT [3]: 5.54 x10E6/uL | HEMATOCRIT [3]: 33.9% | HEMOGLOBIN [3]: 13.13 G/DL | LEUKOCYTE COUNT [3]: 13.7 x10E3/uL | LYMPHOCYTE [3]: 89.67% | MEAN CORPUSCULAR HEMOGLOBIN [3]: 23.73 pg | MEAN CORPUSCULAR HEMOGLOBIN CONCENTRATION [3]: 38.77 G/DL | MEAN CORPUSCULAR VOLUME [3]: 61.23 fL | MONOCYTE [3]: 1.67% | NEUTROPHIL [3]: 8.33% | NUCLEATED RED BLOOD CELLS [3]: 0 /100WBC | PLATELET COUNT [3]: 1182.67 x10E3/uL | ALANINE AMINOTRANSFERASE [3]: 61.33 u/L | ALBUMIN [3]: 4.13 G/DL | ALKALINE PHOSPHATASE [3]: 328.67 u/L | ASPARTATE AMINOTRANSFERASE [3]: 85.67 u/L | BLOOD UREA NITROGEN [3]: 16 mg/dL | CARBON DIOXIDE [3]: 34 mmol/L | CHLORIDE [3]: 102.33 MEQ/L | CHOLESTEROL [3]: 75.67 mg/dL | CREATINE PHOSPHOKINASE [3]: 347.33 u/L | CREATININE [3]: 0.4 mg/dL | GLUCOSE [3]: 150.67 mg/dL | LACTATE DEHYDROGENASE [3]: 245.33 u/L | LIPASE [3]: 9 u/L | PHOSPHORUS [3]: 11.63 mg/dL | POTASSIUM [3]: 6.77 MEQ/L | SODIUM [3]: 143.43 MEQ/L | TOTAL BILIRUBIN [3]: 0.13 mg/dL | TOTAL PROTEIN [3]: 5.33 G/DL | URIC ACID [3]: 1.3 mg/dL
